According to ChEMBL document CHEMBL3526145, “Metabolism, excretion, and pharmacokinetics of ((3,3-difluoropyrrolidin-1-yl)((2S,4S)-4-(4-(pyrimidin-2-yl)piperazin-1-yl)pyrrolidin-2-yl)methanone, a dipeptidyl peptidase inhibitor, in rat, dog and human” (Drug Metab Dispos, 2012):

Tests used:
[1] = Drug level in feces of Sprague-Dawley rat treated with [14C]PF-00734200 at 5 mg/kg, po administered as single dose by LC-MS/MS method; assay type: ADME, organism-based; set-up: dose 5 mg/kg, route oral; details: in vivo
Rattus norvegicus = assay: Total drug level in Sprague-Dawley rat treated with [14C]PF-00734200 assessed as total radio activity at 5 mg/kg, po administered as single dose […]; assay type: ADME, organism-based; set-up: dose 5 mg/kg, route oral; details: in vivo
[2] = Retention time of the compound by HPLC method; assay type: physicochemical
[3] = Drug level in urine of Sprague-Dawley rat treated with [14C]PF-00734200 at 5 mg/kg, po administered as single dose by LC-MS/MS method; assay type: ADME, organism-based; set-up: dose 5 mg/kg, route oral; details: in vivo
[4] = Drug level in urine of beagle dog treated with [14C]PF-00734200 at 5 mg/kg, po administered as single dose by LC-MS/MS method; assay type: ADME, organism-based, Canis lupus familiaris; set-up: dose 5 mg/kg, route oral; details: in vivo
[5] = Drug level in feces of beagle dog treated with [14C]PF-00734200 at 5 mg/kg, po administered as single dose by LC-MS/MS method; assay type: ADME, organism-based, Canis lupus familiaris; set-up: dose 5 mg/kg, route oral; details: in vivo
Canis familiaris = assay: Total drug level in beagle dog treated with [14C]PF-00734200 assessed as total radio activity at 5 mg/kg, po administered as single dose […]; assay type: ADME, organism-based, Canis lupus familiaris; set-up: dose 5 mg/kg, route oral; details: in vivo
[6] = Drug level in urine of human treated with [14C]PF-00734200 at […], po administered as single dose by LC-MS/MS method; assay type: ADME, organism-based; set-up: route oral; details: in vivo
[7] = Drug level in feces of human treated with [14C]PF-00734200 at […], po administered as single dose by LC-MS/MS method; assay type: ADME, organism-based; set-up: route oral; details: in vivo
Homo sapiens [8] = assay: Total drug level in human treated with [14C]PF-00734200 assessed as total radio activity at […], po administered as single dose […]; assay type: ADME, organism-based; set-up: route oral; details: in vivo
Plasma [9] = assay: Drug level in Sprague-Dawley rat plasma treated with [14C]PF-00734200 at 5 mg/kg, po administered as single dose by LC-MS/MS method; assay type: ADME, organism-based; set-up: dose 5 mg/kg, route oral; details: in vivo
Plasma [10] = assay: Drug level in beagle dog plasma treated with [14C]PF-00734200 at 5 mg/kg, po administered as single dose by LC-MS/MS method; assay type: ADME, organism-based, Canis lupus familiaris; set-up: dose 5 mg/kg, route oral; details: in vivo
Serum = assay: Drug level in human serum treated with [14C]PF-00734200 at […], po administered as single dose by LC-MS/MS method; assay type: ADME, organism-based; set-up: route oral; details: in vivo
Cytochrome P450 2D6 = Cytochrome P450 2D6 (Homo sapiens, UniProt P10635); assay: Drug level assessed as human CYP2D6-mediated compound formation from PF-00734200 by LC-MS/MS method; assay type: ADME; details: recombinant enzyme
Cytochrome P450 3A4 = Cytochrome P450 3A4 (Homo sapiens, UniProt P08684); assay: Drug level assessed as human CYP3A4-mediated compound formation from PF-00734200 by LC-MS/MS method; assay type: ADME; details: recombinant enzyme
[11] = Drug level in bile of bile duct-cannulated Sprague-Dawley rat treated with [14C]PF-00734200 at 5 mg/kg, po administered as single dose by LC-MS/MS method; assay type: ADME, organism-based; set-up: dose 5 mg/kg, route oral; details: in vivo
[12] = Drug excretion in Sprague-Dawley rat urine at 5 mg/kg, po administered as single dose; assay type: ADME, organism-based; set-up: dose 5 mg/kg, route oral; details: read-out: Drug excretion
[13] = Drug excretion in Sprague-Dawley rat feces at 5 mg/kg, po administered as single dose; assay type: ADME, organism-based; set-up: dose 5 mg/kg, route oral; details: faeces, read-out: Drug excretion
[14] = Drug recovery in Sprague-Dawley rat at 5 mg/kg, po administered as single dose; assay type: ADME, organism-based; set-up: dose 5 mg/kg, route oral; details: in vivo, read-out: Drug recovery
[15] = Drug excretion in beagle dog urine at 5 mg/kg, po administered as single dose; assay type: ADME, organism-based, Canis lupus familiaris; set-up: dose 5 mg/kg, route oral; details: read-out: Drug excretion
[16] = Drug excretion in beagle dog feces at 5 mg/kg, po administered as single dose; assay type: ADME, organism-based, Canis lupus familiaris; set-up: dose 5 mg/kg, route oral; details: faeces, read-out: Drug excretion
[17] = Drug recovery in beagle dog at 5 mg/kg, po administered as single dose; assay type: ADME, organism-based, Canis lupus familiaris; set-up: dose 5 mg/kg, route oral; details: in vivo, read-out: Drug recovery
[18] = Drug excretion in human urine at […], po administered as single dose; assay type: ADME, organism-based; set-up: route oral; details: read-out: Drug excretion
[19] = Drug excretion in human feces at […], po administered as single dose; assay type: ADME, organism-based; set-up: route oral; details: faeces, read-out: Drug excretion
[20] = Drug recovery in human at […], po administered as single dose; assay type: ADME, organism-based; set-up: route oral; details: in vivo, read-out: Drug recovery
Homo sapiens [21] = assay: Cmax in human at […], po administered as single dose; assay type: ADME, organism-based; set-up: route oral; details: in vivo
Homo sapiens [22] = assay: AUC (0 to 168 hrs) in human at […], po administered as single dose; assay type: ADME, organism-based, Plasma; set-up: time < 168 hr, route oral; details: in vivo
Homo sapiens [23] = assay: AUC (0 to infinity) in human at […], po administered as single dose; assay type: ADME, organism-based, Plasma; set-up: time infinity, route oral; details: in vivo
[24] = Drug metabolism in bile of bile duct-cannulated male Sprague-Dawley rat assessed as PF-00734200 level at 5 mg/kg, po administered as single dose by LC-MS/MS method; assay type: ADME, organism-based; set-up: dose 5 mg/kg, route oral; details: in vivo
[25] = Drug metabolism in bile of bile duct-cannulated female Sprague-Dawley rat assessed as PF-00734200 level at 5 mg/kg, po administered as single dose by LC-MS/MS method; assay type: ADME, organism-based; set-up: dose 5 mg/kg, route oral; details: in vivo
[26] = Drug recovery in bile of bile duct-cannulated Sprague-Dawley rat at 5 mg/kg, po administered as single dose by LC-MS/MS method; assay type: ADME, organism-based; set-up: dose 5 mg/kg, route oral; details: read-out: Drug recovery

Chain of Cytochrome P450 2D6 (P10635 whole entry): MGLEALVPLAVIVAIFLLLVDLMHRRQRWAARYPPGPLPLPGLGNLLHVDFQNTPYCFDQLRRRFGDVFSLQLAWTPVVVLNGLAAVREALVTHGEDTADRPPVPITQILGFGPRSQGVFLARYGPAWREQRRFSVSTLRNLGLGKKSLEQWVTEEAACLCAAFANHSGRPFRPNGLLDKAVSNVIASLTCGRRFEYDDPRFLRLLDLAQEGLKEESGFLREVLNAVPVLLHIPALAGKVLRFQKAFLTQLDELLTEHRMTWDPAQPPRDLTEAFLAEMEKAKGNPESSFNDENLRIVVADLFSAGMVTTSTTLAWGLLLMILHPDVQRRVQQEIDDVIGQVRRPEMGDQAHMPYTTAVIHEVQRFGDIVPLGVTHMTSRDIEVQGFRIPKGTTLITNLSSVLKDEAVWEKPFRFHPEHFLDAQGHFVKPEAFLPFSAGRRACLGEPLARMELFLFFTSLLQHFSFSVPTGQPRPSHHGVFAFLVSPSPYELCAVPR
Chain of Cytochrome P450 3A4 (P08684 whole entry): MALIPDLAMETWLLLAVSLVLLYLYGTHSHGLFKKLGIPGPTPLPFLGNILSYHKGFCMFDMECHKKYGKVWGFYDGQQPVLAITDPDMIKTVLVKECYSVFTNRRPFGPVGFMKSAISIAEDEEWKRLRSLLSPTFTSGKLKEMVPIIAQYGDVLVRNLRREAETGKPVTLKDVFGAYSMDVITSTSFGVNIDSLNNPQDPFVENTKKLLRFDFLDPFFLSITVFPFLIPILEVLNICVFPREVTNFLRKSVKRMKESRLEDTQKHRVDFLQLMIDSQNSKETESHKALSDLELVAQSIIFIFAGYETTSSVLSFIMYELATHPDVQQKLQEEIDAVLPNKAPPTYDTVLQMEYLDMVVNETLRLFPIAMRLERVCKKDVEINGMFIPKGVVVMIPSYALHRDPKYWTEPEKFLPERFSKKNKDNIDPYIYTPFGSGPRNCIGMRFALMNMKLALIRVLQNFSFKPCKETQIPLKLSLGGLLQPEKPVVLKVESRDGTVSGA

Compound | Drug uptake [1] [%] | Drug uptake (Rattus norvegicus) [%] | Retention_time [2] [min] | Drug uptake [3] [%] | Drug uptake [4] [%] | Drug uptake (Canis familiaris) [%] | Drug uptake [6] [%] | Drug uptake (Homo sapiens [8]) [%] | Drug uptake (Plasma [9]) [%] | Drug uptake (Plasma [10]) [%] | further results
O=CN1C[C@@H](N2CCN(c3ncc(O)cn3)CC2)C[C@H]1C(=O)N1CCC(F)(F)C1 | 5.5 | 5.5 | 27.4 | – | – | – | – | – | – | – | –
O=C([C@@H]1C[C@H](N2CCN(c3ncc(O)cn3)CC2)CN1[C@@H]1O[C@H](CO)[C@@H](O)[C@H](O)[C@H]1O)N1CCC(F)(F)C1 | – | – | 28.2 | – | – | – | – | – | – | – | –
O=C([C@@H]1C[C@H](N2CCN(c3ncc(O)cn3)CC2)CN1)N1CCC(F)(F)C1 | 32.3 | 39.6 | 25.5 | 7.3 | 30.1 | 39.1 | 17.9 | 20.6 | 2.7 | 13.7 | Drug uptake [5]: 9%; Drug uptake [7]: 2.7%; Drug uptake (Serum): 4%; Drug metabolism (Cytochrome P450 2D6): metabolite_detected; Drug metabolism (Cytochrome P450 3A4): metabolite_detected
O=C(O)[C@H]1O[C@@H](Oc2cnc(N3CCN([C@@H]4CN[C@H](C(=O)N5CCC(F)(F)C5)C4)CC3)nc2)[C@H](O)[C@@H](O)[C@@H]1O | – | 2.9 | 14.3 | 2.9 | 1 | 1 | – | – | 4.7 | 0.4 | Drug uptake [11]: 50.4%
O=C(O)[C@@H]1C[C@H](N2CCN(c3ncccn3)CC2)CN1 | 2.3 | 5.5 | 5.6 | 3.2 | 2.5 | 2.5 | 1.1 | 2.3 | 8.4 | 1 | Drug uptake [7]: 1.2%
NC(=O)N1C[C@@H](N2CCN(c3ncccn3)CC2)C[C@H]1C(=O)N1CCC(F)(F)C1 | – | – | 30.2 | – | – | – | 1 | 1 | – | – | –
N=C(N)N1CCN([C@H]2C[C@@H](C(=O)N3CCC(F)(F)C3)N(C=O)C2)CC1 | 0.1 | 0.1 | 20.1 | – | – | – | 0.1 | 0.1 | – | – | –
O=C([C@@H]1C[C@H](N2CCN([14c]3ncccn3)CC2)CN1)N1CCC(F)(F)C1 | – | – | – | – | – | – | – | – | – | – | dose excreted [12]: 30.8%; dose excreted [13]: 66%; dose excreted [14]: 97.1%; dose excreted [15]: 66.7%; dose excreted [16]: 16.8%; dose excreted [17]: 92.2%; dose excreted [18]: 76.8%; dose excreted [19]: 10.4%; dose excreted [20]: 87.2%; Cmax (Homo sapiens [21]): 274 ng.Eq/ml; AUC (Homo sapiens [22]): 2490 ng.Eq.hr/ml; AUC (Homo sapiens [23]): 2850 ng.Eq.hr/ml; Drug metabolism [24]: metabolite_not_detected; Drug metabolism [25]: metabolite_not_detected; dose excreted [26]: 62.1%
